# Measured values from patent US8822495B2, “Azacyclyl-substituted aryldihydroisoquinolinones, process for their preparation and their use as medicaments” (Sanofi, priority 2006, dated 2014).
# Target: T1, human MCH receptor (Homo sapiens, UniProt Q99705)
# T1 construct: expressed in transfected cells
# Test: functional IC50 of MCH1R antagonists: cellular calcium flux (FLIPR), called calcium immobilization assay
# Format: cell-based
# Conditions: calcium flux after addition of agonist (MCH), recombinant HEK293 cell line expressing the human MCH receptor
# Source text: Influence on the MCH receptor in vitro; determination of functional IC50 values of MCH1R antagonists
# Cloning of the cDNA for the human MCH receptor, preparation of a recombinant HEK293 cell line which expresses the human MCH receptor, and functional measurements with the recombinant cell line took place in analogy to the description by Audinot et al. (J. Biol. Chem. 276, 13554-13562, 2001). A difference from the reference was, however, the use of the plasmid pEAK8 from EDGE Biosystems (USA) for the construction of the expression vector. The host used for the transfection was a transformed HEK cell line named “PEAK Stable Cells” (likewise from EDGE Biosystems). Functional measurements of the cellular calcium flux after addition of agonist (MCH) in the presence of ligand of the invention took place with the aid of the FLIPR apparatus from Molecular Devices (USA), using protocols of the apparatus manufacturer. The compounds of the invention show a significant inhibition (>30%) of the signal induced by the agonist at a concentration of 100 μM, preferably at 10 μM, particularly preferably at 1 μM, very particularly preferably at 100 nM and even more particularly preferably at 10 nM.
# T1 sequence (Q99705 whole entry): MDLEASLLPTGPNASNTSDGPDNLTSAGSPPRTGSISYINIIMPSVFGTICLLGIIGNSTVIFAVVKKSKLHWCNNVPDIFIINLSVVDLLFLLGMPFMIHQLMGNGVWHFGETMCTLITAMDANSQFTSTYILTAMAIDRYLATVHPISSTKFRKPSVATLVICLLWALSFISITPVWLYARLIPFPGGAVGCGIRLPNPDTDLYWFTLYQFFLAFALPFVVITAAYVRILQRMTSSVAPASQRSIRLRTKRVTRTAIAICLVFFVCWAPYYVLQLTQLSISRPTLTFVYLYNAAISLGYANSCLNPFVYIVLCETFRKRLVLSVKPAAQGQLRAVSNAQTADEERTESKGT
row,SMILES,IC50 [µM]
1,C[C@@H](O)C#Cc1ccc2c(=O)n(-c3ccc(N4CC[C@@H](N5CCCC5)C4)c(F)c3)ccc2c1 [Example 136],0.1
2,CC(C)(O)CN1CC[C@]2(CCN(c3ccc(N4CCc5cc(OC[C@@H]6CCCO6)ccc5C4=O)cc3)C2)C1 [Example 206],0.2
3,O=c1c2ccc(OCCCF)cc2ccn1-c1ccc(N2CC[C@]3(CCN(CCCF)C3)C2)cc1 [Example 210],0.36
4,CC(O)CCOc1ccc2c(=O)n(-c3ccc(N4CC[C@@H](N5CCCC5)C4)c(F)c3)ccc2c1 (stereo partly drawn) [Example 251],0.41
5,CN1C[C@H]2CCN(c3ccc(-n4ccc5cc(OC[C@@H]6CCCO6)ccc5c4=O)cc3)[C@H]2C1 [Example 324],0.2
6,CN(C)[C@@H]1CCN(c2ccc(N3CCc4cc(N5C[C@H]6CCCN6C5=O)ccc4C3=O)cc2F)C1 [Example 99],1.68
7,CN(C)[C@@H]1CCN(c2ccc(N3CCc4cc(C#CC(C)(C)O)sc4C3=O)cc2)C1 [Example 361],2.56
8,CC1(O)CCCC1Oc1ccc2c(=O)n(-c3ccc(N4CC[C@@H](N5CCCC5)C4)c(F)c3)ccc2c1 (stereo partly drawn) [Example 168],1.39
9,COCCCNC1CCN(c2ccc(-n3ccc4cc(OC[C@H]5CCCO5)ccc4c3=O)cc2F)C1 (stereo partly drawn) [Example 303],0.38
10,O=C1CCCN1CCOc1ccc2c(=O)n(-c3ccc(N4CC[C@@H](N5CCCC5)C4)c(F)c3)ccc2c1 [Example 246],13
11,CC[C@H](O)COc1ccc2c(c1)CCN(c1ccc(N3CC[C@]4(CCN(CCCF)C4)C3)cc1)C2=O [Example 176],0.31
12,CC1CCOC1COc1ccc2c(=O)n(-c3ccc(N4CC[C@@H](N5CCCC5)C4)c(F)c3)ccc2c1 (stereo partly drawn) [Example 202],0.5
13,O=C1c2ccc(OC[C@@H]3CCCO3)cc2CCN1c1ccc(N2CCC(N3CC4CCC4C3)C2)c(F)c1 (stereo partly drawn) [Example 264],0.59
14,CN(C)[C@@H]1CCN(c2ccc(N3CCc4cc(OC5CCC(O)C5)ccc4C3=O)cc2F)C1 (stereo partly drawn) [Example 219],1.46
15,O=c1c2ccc(OC[C@H]3CCCO3)cc2ccn1-c1ccc(N2CCC3(CNCCO3)C2)c(F)c1 (stereo partly drawn) [Example 341],1.6
16,CCCCOc1ccc2c(c1)CCN(c1ccc(N3CCC(NCCCN4CCCC4=O)C3)cc1)C2=O (stereo not drawn) [Example 45],0.22
17,"CCCCOc1ccc2c(c1)CCN(c1ccc(N3CCC(N4CCN(C(C)=O)CC4)C3)cc1)C2=O (stereo not drawn) [Example 39, 2-{4-[3-(4-Acetylpiperazin-1-yl)pyrrolidin-1-yl]phenyl}-6-butoxy-3,4-dihydro-2H-isoquinolin-1-one]",0.23

row,SMILES,IC50 [µM]
1,CN(C)[C@@H]1CCN(c2ccc(N3CCc4cc(OCC5(C)COC5)ccc4C3=O)cc2F)C1 [Example 224],1.42
2,"CC1CCN(c2ccc3c(c2)CCN(c2ccc(N4CC[C@@H](N(C)C)C4)c(F)c2)C3=O)CC1 [Example 24, 2-[4-((R)-3-Dimethylaminopyrrolidin-1-yl)-3-fluorophenyl]-6-(4-methylpiperidin-1-yl)-3,4-dihydro-2H-isoquinolin-1-one]",1.19
3,CC1(O)CCN(C2CCN(c3ccc(-n4ccc5cc(OC[C@H]6CCCO6)ccc5c4=O)cc3F)C2)CC1 (stereo partly drawn) [Example 321],0.15
4,CC1=C(C)C(=O)N(c2ccc3c(c2)CCN(c2ccc(N4CC[C@@H](N(C)C)C4)c(F)c2)C3=O)C1 [Example 112],7.54
5,CN[C@@H]1CCN(c2ccc(N3CCc4cc(OC5CC(C)OC5=O)ccc4C3=O)cc2F)C1 (stereo partly drawn) [Example 84],6.24
6,CC(O)CCNc1ccc2c(c1)CCN(c1ccc(N3CC[C@@H](N(C)C)C3)c(F)c1)C2=O (stereo partly drawn) [Example 106],4.21
7,CC[C@H](O)COc1ccc2c(c1)CCN(c1ccc(N3CCC4CN(C)CC43)cc1)C2=O (stereo partly drawn) [Example 287],1.96
8,"CCCCOc1ccc2c(c1)CCN(c1ccc(N3CCC(N(C)C)C3)c(Cl)c1)C2=O (stereo not drawn) [Example 1, 6-Butoxy-2-[3-chloro-4-(3-dimethylaminopyrrolidin-1-yl)phenyl]-3,4-dihydro-2H-isoquinolin-1-one]",0.99
9,"CN(C)C1(C)CCN(c2ccc(-n3ccc4cc(OC[C@H]5CCCO5)ccc4c3=O)cc2F)C1 (stereo partly drawn) [Example 356, 2-[4-(3-Dimethylamino-3-methyl-pyrrolidin-1-yl)-3-fluorophenyl]-6-[(R)-1-(tetrahydrofuran-2-yl)methoxy]-2H-isoquinolin-1-one]",1.14
10,CC(C)C(=O)Nc1ccc2c(c1)CCN(c1ccc(N3CC[C@@H](N(C)C)C3)c(F)c1)C2=O [Example 95],3.41
11,COc1cc(-n2ccc3cc(OC[C@@H]4CCCO4)ccc3c2=O)ccc1N1CCCN(C)CC1 [Example 326],0.22
12,"CCCCOc1ccc2c(c1)CCN(c1ccc(N3CC[C@@H](N(C)CCS(C)(=O)=O)C3)c(F)c1)C2=O [Example 14, 6-Butoxy-2-(3-fluoro-4-{(R)-3-[(2-methanesulfonylethyl)methylamino]pyrrolidin-1-yl}phenyl)-3,4-dihydro-2H-isoquinolin-1-one]",1.07
13,CC(=O)N(C)C1CCCN(c2ccc(-n3ccc4cc(OC[C@@H]5CCCO5)ccc4c3=O)cc2)C1 (stereo partly drawn) [Example 327],3.69
14,O=c1c2ccc(OCC(O)C(F)(F)F)cc2ccn1-c1ccc(N2CC[C@@H](N3CCCC3)C2)c(F)c1 (stereo partly drawn) [Example 154],0.18
15,"CO[C@@H]1CN(c2ccc(-n3ccc4cc(OC[C@H]5CCCO5)ccc4c3=O)cc2F)C[C@H]1N(C)C (relative stereo) [Example 353, 2-[4-((3R*,4R*)-3-Dimethylamino-4-methoxy-pyrrolidin-1-yl)-3-fluorophenyl]-6-[(R)-1-(tetrahydrofuran-2-yl)methoxy]-2H-isoquinolin-1-one]",23.8
16,CN1CC2(CCN(c3ccc(-n4ccc5cc(OC[C@H]6CCCO6)ccc5c4=O)cc3F)C2)C1 [Example 354],0.22
